From US5399711A, “Thiomarinol compounds” (Sankyo Company, Limited, priority 1992, dated 1995)
Values after ≈ are worked out from the molar mass of the structure shown.

Tests used:
Proteus vulgaris 1420 = experiment: MIC, agar medium dilution method (Test Example 1); type: cell-based; settings: nutrient agar
Experimental: (§1) The minimum inhibitory concentration (MIC) of thiomarinol, thiomarinol B, thiomarinol C and pseudomonic acid A (identified as "A", "B", "C" and "P", respectively) given as μg/ml, against gram-positive and gram-negative bacteria was determined by the agar medium dilution method, using a nutrient agar medium (Product of Eiken Chemical Co., Ltd.).

[1] = tested on: Staphylococcus aureus 209P; experiment: MIC, agar medium dilution method (Test Example 1); type: cell-based; settings: nutrient agar
Experimental: as §1

[2] = tested on: Klebsiella pneumoniae 846 (R); experiment: MIC, agar medium dilution method (Test Example 1); type: cell-based; settings: nutrient agar
Experimental: as §1

Enterobacter cloacae 963 = experiment: MIC, agar medium dilution method (Test Example 1); type: cell-based; settings: nutrient agar
Experimental: as §1

[3] = tested on: Enterococcus faecalis 681; experiment: MIC, agar medium dilution method (Test Example 1); type: cell-based; settings: nutrient agar
Experimental: as §1

[4] = tested on: Pseudomonas aerucrinosa 1001; experiment: MIC, agar medium dilution method (Test Example 1); type: cell-based; settings: nutrient agar
Experimental: as §1

[5] = tested on: Klebsiella pneumoniae 806; experiment: MIC, agar medium dilution method (Test Example 1); type: cell-based; settings: nutrient agar
Experimental: as §1

[6] = tested on: Staphylococcus aureus 535 (MRSA); experiment: MIC, agar medium dilution method (Test Example 1); type: cell-based; settings: nutrient agar
Experimental: as §1

Escherichia coli NIHJ = experiment: MIC, agar medium dilution method (Test Example 1); type: cell-based; settings: nutrient agar
Experimental: as §1

Serratia marcescens 1184 = experiment: MIC, agar medium dilution method (Test Example 1); type: cell-based; settings: nutrient agar
Experimental: as §1

[7] = tested on: Morcranella morganii 1510; experiment: MIC, agar medium dilution method (Test Example 1); type: cell-based; settings: nutrient agar
Experimental: as §1

Escherichia coli 609 = experiment: MIC, agar medium dilution method (Test Example 1); type: cell-based; settings: nutrient agar
Experimental: as §1

Salmonella enteritidis = experiment: MIC, agar medium dilution method (Test Example 1); type: cell-based; settings: Salmonella enterica, nutrient agar
Experimental: as §1

[8] = tested on: Staphylococcus aureus 56R; experiment: MIC, agar medium dilution method (Test Example 1); type: cell-based; settings: nutrient agar
Experimental: as §1

[9] = tested on: Pseudomonas aerucrinosa No. 7; experiment: MIC, agar medium dilution method (Test Example 1); type: cell-based; settings: nutrient agar
Experimental: as §1

[10] = tested on: gram-positive and gram-negative bacteria; experiment: Antibacterial activity, overall comparison; type: cell-based; settings: for antibacterial activity compared with pseudomonic acid A: general statement
Experimental: as §1

[11] = tested on: Mycoplasma hyosynoviae S-16; experiment: Antimycoplasmal MIC (Test Example 2); type: cell-based; settings: S16, 120 h, Mucin PPLO agar medium, 15% horse serum, 0.005 ml of 10^5 CFU/ml, 37° C., 5 days
Experimental: Following the same procedure as for Test Example 1, the activity of thiomarinol, thiomarinol B, thiomarinol C and pseudomonic acid A (identified as "A", "B", "C" and "P", respectively) was assayed against various species of mycoplasma. Inoculum: 0.005 ml of 10^5 CFU/ml Thiomarinol B, Thiomarinol C and Pseudomonic acid A were all assayed on Chanock medium [prepared as described in P.N.A.S., 48, 41-49 (1962) and supplemented with 20% horse serum] for all microorganisms; Thiomarinol was assayed on the following media: M. hyosynoviae: Mucin PPLO* agar medium (15% horse serum supplemented) |*PPLO ( -- Pleuro -- Pneumonia- -- Like -- Organism) |PPLO Broth without CV (Difco) | 21 g |Mucin bacteriological (Difco) | 5 g |Distilled water 800 ml |Agar Noble (Difco) 12 g |Equine serum 150 ml |25% Fresh yeast extract | 50 ml Culture conditions: 37° C., 5 days, slightly aerobic (BBL gas pack method [cultivation in disposable CO2 generator from Becton Dickinson Microbiology Systems, Cockeysville, Md. 2103 U.S.A.])

Solubility = type: physicochemical; settings: for solubility (insoluble in): hexane and water; for solubility (soluble in): organic solvents
bacteria = settings: compared with the thiomarinol derivatives or with pseudomonic acid; cited from earlier work
tumor = settings: Japanese Patent Kokai Application Number Sho 63-27484; cited from earlier work
[12] = tested on: Pseudomonas aeruginosa 3719; experiment: MIC, agar medium dilution method (Test Example 1); type: cell-based; settings: nutrient agar
Experimental: as §1

[13] = tested on: Mycoplasma hyorhinis BTS 7; experiment: Antimycoplasmal MIC (Test Example 2); type: cell-based; settings: BTS7, 120 h, Chanock medium, 20% horse serum, 0.005 ml of 10^5 CFU/ml, 37° C., 5 days
Experimental: Following the same procedure as for Test Example 1, the activity of thiomarinol, thiomarinol B, thiomarinol C and pseudomonic acid A (identified as "A", "B", "C" and "P", respectively) was assayed against various species of mycoplasma. Inoculum: 0.005 ml of 10^5 CFU/ml Thiomarinol B, Thiomarinol C and Pseudomonic acid A were all assayed on Chanock medium [prepared as described in P.N.A.S., 48, 41-49 (1962) and supplemented with 20% horse serum] for all microorganisms; Culture conditions: 37° C., 5 days, slightly aerobic (BBL gas pack method [cultivation in disposable CO2 generator from Becton Dickinson Microbiology Systems, Cockeysville, Md. 2103 U.S.A.])

mycoplasma = experiment: Anti-mycoplasmal activity, overall comparison; type: cell-based; settings: compared with thiomarinol and pseudomonic acid A; Table 2
Experimental: Following the same procedure as for Test Example 1, the activity of thiomarinol, thiomarinol B, thiomarinol C and pseudomonic acid A (identified as "A", "B", "C" and "P", respectively) was assayed against various species of mycoplasma.

Structure (SMILES) | MIC (Proteus vulgaris 1420) | MIC [1] | MIC [2] | MIC (Enterobacter cloacae 963) | MIC [3] | MIC [4] | MIC [5] | MIC [6] | MIC (Escherichia coli NIHJ) | MIC (Serratia marcescens 1184) | MIC [7] | MIC (Escherichia coli 609) | MIC (Salmonella enteritidis) | MIC [8] | MIC [9] | antibacterial activity of prior art compounds (bacteria) | further results
C/C(=C\C(=O)OCCCCCCCC(=O)Nc1c2sscc-2[nH]c1=O)C(O)C1OCC(C/C=C/C(C)C(C)O)C(O)C1O (stereo not drawn) [thiomarinol] | 0.05 µg/mL (≈ 0.078 µM) | ≤ 0.01 µg/mL | 0.2 µg/mL (≈ 0.312 µM) | 1.5 µg/mL (≈ 2.34 µM) | 0.02 µg/mL (≈ 0.0312 µM) | 0.2 µg/mL (≈ 0.312 µM) | 0.8 µg/mL (≈ 1.25 µM) | ≤ 0.01 µg/mL | 0.8 µg/mL (≈ 1.25 µM) | 3.1 µg/mL (≈ 4.84 µM) | 6.2 µg/mL (≈ 9.68 µM) | 0.8 µg/mL (≈ 1.25 µM) | 0.4 µg/mL (≈ 0.624 µM) | ≤ 0.01 µg/mL | 0.4 µg/mL (≈ 0.624 µM) | – | antibacterial activity compared with pseudomonic acid A [10]: significantly more potent antibacterial activity than does pseudomonic acid A; MIC [11]: 0.025 µg/mL (≈ 0.039 µM); solubility (insoluble in) (Solubility): insoluble in hexane and water; solubility (soluble in) (Solubility): Soluble in alcohols such as methanol, ethanol, propanol and butanol; and soluble in dimethyl sulfoxide, dimethylformamide, chloroform, ethyl acetate, acetone and diethyl ether
CC(=CC(=O)OCCCCC=CCCC(=O)O)CC1OCC(CC2OC2C(C)C(C)O)C(O)C1O (stereo not drawn) [pseudomonic acid D] | – | – | – | – | – | – | – | – | – | – | – | – | – | – | – | weaker antibacterial activities than do the thiomarinol derivatives of the present invention | –
CC(=CC(=O)OCCCCCCCCC(=O)O)CC1OCC(CC=CC(C)C(C)O)C(O)C1O (stereo not drawn) [pseudomonic acid C] | – | – | – | – | – | – | – | – | – | – | – | – | – | – | – | weaker antibacterial activities than do the thiomarinol derivatives of the present invention | –
O=C1CCC(=O)N(O)CCCCCNC(=O)CCC(=O)N(O)CCCCCN1 [bisucaberin] | – | – | – | – | – | – | – | – | – | – | – | – | – | – | – | – | antitumor activity (tumor): exhibit antitumor activity
CC(=CC(=O)OCCCCCCCCC(=O)O)CC1OCC(CC2OC2C(C)C(C)O)C(O)C1O (stereo not drawn) [pseudomonic acid A] | 0.4 µg/mL (≈ 0.799 µM) | 0.05 µg/mL (≈ 0.0999 µM) | 100 µg/mL (≈ 200 µM) | > 100 µg/mL | 25 µg/mL (≈ 49.9 µM) | > 100 µg/mL | 100 µg/mL (≈ 200 µM) | 0.2 µg/mL (≈ 0.399 µM) | 100 µg/mL (≈ 200 µM) | > 100 µg/mL | > 100 µg/mL | 100 µg/mL (≈ 200 µM) | 50 µg/mL (≈ 99.9 µM) | 0.1 µg/mL (≈ 0.2 µM) | > 100 µg/mL | weaker antibacterial activities than do the thiomarinol derivatives of the present invention | MIC [12]: > 100 µg/mL; MIC [13]: 0.39 µg/mL (≈ 0.779 µM)
C/C(=C\C(=O)OCCCCCCCCC(=O)O)C[C@@H]1OC[C@](O)(C[C@@H]2O[C@H]2[C@@H](C)[C@H](C)O)[C@@H](O)[C@H]1O [pseudomonic acid B] | – | – | – | – | – | – | – | – | – | – | – | – | – | – | – | weaker antibacterial activities than do the thiomarinol derivatives of the present invention | –
C/C(=C\C(=O)OCCCCCCCC(=O)Nc1c2sscc-2[nH]c1=O)CC1OCC(C/C=C/C(C)C(C)O)C(O)C1O (stereo not drawn) [thiomarinol C] | 0.2 µg/mL (≈ 0.32 µM) | ≤ 0.01 µg/mL | 0.8 µg/mL (≈ 1.28 µM) | 3.1 µg/mL (≈ 4.96 µM) | 0.8 µg/mL (≈ 1.28 µM) | 0.8 µg/mL (≈ 1.28 µM) | 1.5 µg/mL (≈ 2.4 µM) | ≤ 0.01 µg/mL | 3.1 µg/mL (≈ 4.96 µM) | 6.2 µg/mL (≈ 9.92 µM) | 12.5 µg/mL (≈ 20 µM) | 1.5 µg/mL (≈ 2.4 µM) | 1.5 µg/mL (≈ 2.4 µM) | ≤ 0.01 µg/mL | 0.8 µg/mL (≈ 1.28 µM) | – | MIC [12]: 0.4 µg/mL (≈ 0.64 µM); antibacterial activity ([10]; compared with thiomarinol and pseudomonic acid A, Table 1): at least as good as those of thiomarinol and are, in general, significantly better than those of pseudomonic acid A; antibacterial activity compared with pseudomonic acid A [10]: significantly more potent antibacterial activity than does pseudomonic acid A; anti-mycoplasmal activity (mycoplasma): at least as good as those of thiomarinol and are, in general, significantly better than those of pseudomonic acid A; MIC [13]: 1.56 µg/mL (≈ 2.5 µM); solubility (insoluble in) (Solubility): Insoluble in hexane and water; solubility (soluble in) (Solubility): Soluble in alcohols such as methanol, ethanol, propanol and butanol, as well as in dimethyl sulfoxide, dimethylformamide, chloroform, ethyl acetate, acetone and diethyl ether
